Assay [1] deals with C57BL6/J mice. Description: Hind limb ischemia in type 2 diabetes model, laser Doppler perfusion. As to conditions: type 2 diabetes mice. The assay is classed as in vivo, mouse. How it is done: Male C57BL6/J mice 8-10 weeks of age were obtained from Australian BioResources (Moss Vale, NSW) with 12 hour light/dark cycles and free access to water and mouse chow (Specialty Feeds, Australia). Mice were housed in groups of 2-5 in standard cages within a Physical Containment Level 2 laboratory. For in vivo angiogenesis 16 mice underwent the femoral vascular ligation model. Mice were anaesthetized with 1.5-2% isoflurane vaporized in oxygen and constant body temperature was maintained. All mice received pre-operative and 24-hour post-operative analgesia (carprofen, 5 mg/kg s.c). A small incision (˜15 mm) was made in the hind limb skin directly over the femoral vasculature. A portion of the femoral artery and vein, distal to the origin of the profunda femoris artery and proximal to the saphenous artery, were isolated and two ligations were performed using 6-0 silk sutures. The femoral artery and vein were then excised between the ligation sites 27. […] Hind limb blood flow was assessed prior to ligation (baseline) and immediately after undergoing hind limb ischemia, with subsequent imaging at day 3, 7, 10, 14, 21 and 28 post hind limb ischemia. […] The rate of reperfusion in the hind limb was calculated as a ratio of blood flow in the ischemic versus non-ischemic contralateral limb. […]

The test system of assay [2] is HUVECs. Put plainly: Tubule formation in HUVECs on reduced growth factor extracellular matrix. As to conditions: 10 and 100 ng/ml compared to the control. Type of assay: cell-based, human. How it is done: Human umbilical vein endothelial cells (HUVECs; Lonza C2519AS, pooled source, Australia) were grown using standard cell culture conditions in endothelial cell growth medium (EGM Plus®, containing 2% fetal bovine serum, Lonza, Australia). All cells were regularly confirmed to be mycoplasma negative. Two different pooled source cell lines were used in experiments and all were used within passages 2-4. Human adult dermal microvascular endothelial cells were also obtained from Lonza (CC-2543, Lonza Australia) and cultured as above but using endothelial growth medium 2-MV bulletkit. Endothelial colony forming cells (ECFCs) were derived from the peripheral blood of participants in the BioHEART study. This registered study (ACTRN12618001322224) complies with the Declaration of Helsinki and the study protocol and design has been approved by the Northern Sydney Local Health District Human Research Ethics Committee (HREC/17/HAWKE/343). […]
Once they were ˜70% confluent, cells were re-suspended in diluted EGM Plus® (1:3) and plated on reduced-growth factor extracellular matrix (15 mg/ml, Cultrex, Trevigen, USA) at a density of 1.5×10^4 cells/cm^2. […] Cells were incubated in an EVOS FL Auto Imaging system for 16 hours and tubule formation recorded every hour. Optimal tube formation occurred at the 8-hour timepoint; tubule number at this point was quantified manually using NIH Image J software. […]

On to `C[C@H](Cc1ccc2c(c1)OC(C(=O)[O-])(C(=O)[O-])O2)NC[C@H](O)c1cccc(Cl)c1.[Na+].[Na+]` [CL 316,243], for which the reperfusion post-ischemia entry in assay [1] is on record as “augmented reperfusion”. In addition, in assay [2], the “number of tubules formed” value is listed as “significantly increased”.

(Values after patent publication US20240148701A1, “WOULD HEALING METHODS” (The University of Sydney, priority 2021, published 2024).)
